Test results published in US6844345B2, “Piperazine derivatives” (priority 2001, dated 2005).
Read-outs that look alike come from different tables or passages of the source.

Tests used:
human 5-HT2B receptors = target: T1, human 5-HT2B receptors (Homo sapiens, UniProt P41595); assay: Binding to 5-HT2B receptor, [3H]-5-HT radioligand, Method (b); conditions: human receptor in CHO cell line, read-out: Ki (2B)
T1 construct: expressed in transfected cells; host or cells: CHO cell line
Procedure: (§1) The binding of compounds of formula (I) to serotonin receptors was determined in vitro by standard methods. The preparations were investigated in accordance with the assays given hereinafter.
Method (b): For the binding to the 5-HT2B receptor the 5-HT2B receptors were radiolabeled with [^3H]-5-HT. The affinity of the compounds for human 5-HT2B receptors in a CHO cell line was determined according to the procedure of K. Schmuck, C. Ullmer, P. Engels and H. Lubbert, FEBS Lett., 1994, 342, 85-90.

5-HT2C receptor [1] = target: T2, 5-HT2C receptor (Homo sapiens, UniProt P28335); assay: Functional activity, FLIPR calcium assay in CHO cells expressing human 5-HT2C; assay type: cell-based; set-up: expressed in transfected cells; host or cells: CHO cells; conditions: for h5-HT2c Relative Efficacy: maximum fluorescent signal relative to 10 μM 5-HT (defined as 100%)
T2 sequence (P28335 33-458): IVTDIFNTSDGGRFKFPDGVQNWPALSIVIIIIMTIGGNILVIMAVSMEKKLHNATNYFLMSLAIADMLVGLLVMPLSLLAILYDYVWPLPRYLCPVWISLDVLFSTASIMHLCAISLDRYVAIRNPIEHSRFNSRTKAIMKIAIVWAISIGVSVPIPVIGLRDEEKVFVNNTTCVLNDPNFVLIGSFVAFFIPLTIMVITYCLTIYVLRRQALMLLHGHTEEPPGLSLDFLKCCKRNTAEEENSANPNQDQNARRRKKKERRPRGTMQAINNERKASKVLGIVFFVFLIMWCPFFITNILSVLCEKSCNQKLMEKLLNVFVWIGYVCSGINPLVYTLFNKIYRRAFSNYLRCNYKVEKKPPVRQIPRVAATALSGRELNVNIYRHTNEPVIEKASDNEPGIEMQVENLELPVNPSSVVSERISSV
Procedure: (§2) The functional activity of compounds of formula (I) was assayed using a Fluorimetric Imaging Plate reader (FLIPR). CHO cells expressing the human 5-HT2C or human 5-HT2A receptors were counted and plated into standard 96 well microtitre plates on the day before testing to give a confluent monolayer. The cells were then dye loaded with the calcium sensitive dye, Fluo-3-AM. Unincorporated dye was removed using an automated cell washer to leave a total volume of 100 μL/well of assay buffer (Hanks balanced salt solution containing 20 mM Hepes and 2.5 mM probenecid). The drug (dissolved in 50 μL of the assay buffer) was added at a rate of 70 μL/sec to each well of the FLIPR 96 well plate during fluorescence measurements. The measurements were taken at 1 sec intervals and the maximum fluorescent signal was measured (approx. 10-15 secs after drug addition) and compared with the response produced by 10 μM 5-HT (defined as 100%) to which it was expressed as a percentage response (relative efficacy). Dose response curves were constructed using Graphpad Prism (Graph Software Inc.).

5-HT2A receptor [2] = target: T3, 5-HT2A receptor (Homo sapiens, UniProt P28223); assay: Functional activity, FLIPR calcium assay in CHO cells expressing human 5-HT2A; assay type: cell-based; set-up: expressed in transfected cells; host or cells: CHO cells; conditions: for h5-HT2A Relative Efficacy: maximum fluorescent signal relative to 10 μM 5-HT (defined as 100%)
T3 sequence (P28223 whole entry): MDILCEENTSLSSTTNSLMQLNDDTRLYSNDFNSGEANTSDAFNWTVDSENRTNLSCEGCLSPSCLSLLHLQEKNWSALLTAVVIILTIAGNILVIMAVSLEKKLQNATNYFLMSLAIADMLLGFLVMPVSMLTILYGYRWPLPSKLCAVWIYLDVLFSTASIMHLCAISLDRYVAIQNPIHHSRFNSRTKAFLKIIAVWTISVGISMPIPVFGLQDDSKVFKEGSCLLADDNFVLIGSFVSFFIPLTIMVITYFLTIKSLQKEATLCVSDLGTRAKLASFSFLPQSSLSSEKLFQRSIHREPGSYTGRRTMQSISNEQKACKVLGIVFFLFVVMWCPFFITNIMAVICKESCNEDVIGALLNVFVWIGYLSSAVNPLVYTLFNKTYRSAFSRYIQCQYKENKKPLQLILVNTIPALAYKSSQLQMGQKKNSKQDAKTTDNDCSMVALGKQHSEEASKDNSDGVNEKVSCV
Procedure: as §2

5-HT2C receptor [3] = target: T2, 5-HT2C receptor; assay: Binding to 5-HT2C receptor, [3H]-5-HT radioligand, Method (a); set-up: expressed in transfected cells; host or cells: CHO cell line; conditions: CHO cell line, read-out: Ki (2C)
Procedure: as §1
Method (a): For the binding to the 5-HT2C receptor the 5-HT2C receptors were radiolabeled with [^3H]-5-HT. The affinity of the compounds for 5-HT2C receptors in a CHO cell line was determined according to the procedure of D. Hoyer, G. Engel and H. O. Kalkman, European J. Pharmacol., 1985, 118, 13-23.

5-HT2A receptor [4] = target: T3, 5-HT2A receptor; assay: Binding to 5-HT2A receptor, [125I]-DOI radioligand, Method (c); set-up: expressed in transfected cells; host or cells: CHO cell line; conditions: CHO cell line, read-out: Ki (2A)
Procedure: as §1
Method (c): For the binding to the 5-HT2A receptor the 5-HT2A receptors were radiolabeled with [^125I]-DOI. The affinity of the compounds for 5-HT2A receptors in a CHO cell line was determined according to the procedure of D. J. McKenna and S. J. Peroutka, J. Neurosci., 1989, 9, 3482-90.

[5] = FLIPR, CHO cells, Fluo-3-AM, read-out: h5-HT2c EC50
[6] = FLIPR, CHO cells, Fluo-3-AM, read-out: h5-HT2A EC50

T1 sequence (P41595 whole entry): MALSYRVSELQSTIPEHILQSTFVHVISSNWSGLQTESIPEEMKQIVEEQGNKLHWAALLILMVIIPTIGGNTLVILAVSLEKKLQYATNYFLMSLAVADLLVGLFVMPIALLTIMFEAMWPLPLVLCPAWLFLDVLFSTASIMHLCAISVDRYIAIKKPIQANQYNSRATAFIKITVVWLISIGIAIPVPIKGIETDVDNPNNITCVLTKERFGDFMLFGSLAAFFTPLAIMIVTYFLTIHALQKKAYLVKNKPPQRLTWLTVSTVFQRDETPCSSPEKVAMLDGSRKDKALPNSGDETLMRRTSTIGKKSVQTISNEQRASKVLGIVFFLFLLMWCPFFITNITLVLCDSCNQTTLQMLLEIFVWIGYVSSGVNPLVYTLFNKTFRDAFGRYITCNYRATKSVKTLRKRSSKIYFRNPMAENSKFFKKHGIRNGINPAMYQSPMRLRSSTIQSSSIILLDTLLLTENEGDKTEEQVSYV

## Cc1cc2c(cc1Br)cc1n2[C@H](C)CNC1.Cl
other
  melting point: 241 °C (dec.)

## Cc1ccc2cc3n(c2c1)[C@H](C)CNC3.Cl
other
  melting point: 245 °C (dec.)

## C[C@@H]1CNCc2cc3c(Cl)cccc3n21.Cl
other
  melting point: 234 to 237 °C (dec.)

## C[C@@H]1CNCc2cc3cc(Br)c(F)cc3n21.Cl
other
  melting point: 232 °C

## CCc1cccc2cc3n(c12)[C@H](C)CNC3 [Example 1, (R)-6-Ethyl-4-methyl-1,2,3,4-tetrahydro-pyrazino[1,2-a]indole]
Human 5-HT2B receptors
  Ki: 86 nM
5-HT2C receptor [1]; [5]
  EC50: 22 nM
5-HT2C receptor [1]
  h5-HT2c Relative Efficacy: 83%
5-HT2A receptor [2]; [6]
  EC50: 640 nM
5-HT2A receptor [2]
  h5-HT2A Relative Efficacy: 23%
5-HT2C receptor [3]
  Ki: 5 nM
5-HT2A receptor [4]
  Ki: 205 nM

## C[C@@H]1CNCc2cc3ccc(C(F)(F)F)cc3n21 [Example 2, (R)-4-Methyl-7-trifluoromethyl-1,2,3,4-tetrahydro-pyrazino[1,2-a]indole]
other
  melting point: 123 to 125 °C

## Cc1c2n(c3c(C)c(Cl)ccc13)[C@H](C)CNC2.O=C(O)C(=O)O [Example 14, (R)-7-Chloro-4,6,10-trimethyl-1,2,3,4-tetrahydro-pyrazino[1,2-a]indole oxalate]
5-HT2C receptor [1]; [5]
  EC50: 0.4 nM
5-HT2C receptor [1]
  h5-HT2c Relative Efficacy: 88%
5-HT2A receptor [2]; [6]
  EC50: 536 nM
5-HT2A receptor [2]
  h5-HT2A Relative Efficacy: 34%

## C[C@@H]1CNCc2cc3cccc(OC(F)(F)F)c3n21 [Example 17, (R)-4-Methyl-6-trifluoromethoxy-1,2,3,4-tetrahydro-pyrazino[1,2-a]indole]
other
  melting point: 58 to 60 °C

## C[C@@H]1CNCc2cc3ccc(Cl)cc3n21 [Example 20, (R)-7-Chloro-4-methyl-1,2,3,4-tetrahydro-pyrazino[1,2-a]indole]
Human 5-HT2B receptors
  Ki: 44 nM
5-HT2C receptor [1]; [5]
  EC50: 7 nM
5-HT2C receptor [1]
  h5-HT2c Relative Efficacy: 91%
5-HT2A receptor [2]; [6]
  EC50: 163 nM
5-HT2A receptor [2]
  h5-HT2A Relative Efficacy: 49%
5-HT2C receptor [3]
  Ki: 2.8 nM
5-HT2A receptor [4]
  Ki: 23 nM

## Cc1ccc(C)c2c1cc1n2[C@H](C)CNC1 [Example 21, (R)-4,6,9-Trimethyl-1,2,3,4-tetrahydro-pyrazino[1,2-a]indole]
5-HT2C receptor [1]
  EC50: 5 nM
  h5-HT2c Relative Efficacy: 80%
5-HT2A receptor [2]
  EC50: 121 nM
  h5-HT2A Relative Efficacy: 76%
